Results as given in patent EP4656630A1, “NOVEL COMPOUND AS LYSYL-TRNA SYNTHETASE 1 INHIBITOR, AND USE THEREOF” (Zymedi Co., Ltd., priority 2023, dated 2024).
Blank lines part the entries; values can stand above or below the molecule they belong to.

How the values were obtained:
[1] = test system: Raw 264.7 cells; test: LN (Laminin 421)-induced immune cell migration, Transwell; format: cell-based; settings: Mus musculus, RAW264.7; for inhibition at 3 µM: 3 µM compound, LN (Laminin 421 1 µg/ml), 24 hours, % inhibition compared to control group, read-out: Migration inhibitor % (3uM); for EC50: LN-induced cell migration, read-out: EC50 for cell migration inhibition induced by LN
In short: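 Raw 264.7 cells (1 x 10^5/well) seeded in upper chamber of gelatin-coated 5 µm Transwell with compound at 3 µM. Serum-free DMEM with Laminin 421 (1 µg/ml) in lower chamber. After 24 h, migrated cells fixed, hematoxylin-stained and counted by microscopy; expressed as % inhibition versus control.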

[2] = biological target: T1, KARS1 and 37LR (Homo sapiens, UniProt Q15046); test: Cell-free ELISA of KARS1 and 37LR (laminin receptor) binding; settings: 10 µM compound, 1 hour, plate coated with KARS1 (1-207aa), LRF
T1 construct: KARS1 (1-207aa)
T1 sequence (Q15046 1-207): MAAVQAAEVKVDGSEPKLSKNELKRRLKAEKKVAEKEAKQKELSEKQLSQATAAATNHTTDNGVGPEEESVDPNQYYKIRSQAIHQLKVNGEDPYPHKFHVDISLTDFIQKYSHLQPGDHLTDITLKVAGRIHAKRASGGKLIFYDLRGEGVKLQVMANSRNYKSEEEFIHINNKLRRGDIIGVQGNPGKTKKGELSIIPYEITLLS
Method: Next, based on the mechanism of action, a cell-free ELISA analysis was conducted to select compounds with high inhibitory activity on the binding of KARS1 and LR (laminin receptor).

[3] = test system: Raw264.7 cells; test: KARS1-induced trans-migration assay; format: cell-based, mouse; settings: Mus musculus, RAW264.7; for inhibition at 1 µM: 1 µM compound, read-out: KARS1-induced Raw264.7 cell migration (% inhibition, 1uM); for EC50: KARS1-induced cell migration, 0.1~4 µM
In short: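 Mouse Raw264.7 macrophage trans-migration induced by externally added KARS1 protein in place of laminin. Candidates with high inhibition at 1 µM were then tested at 0.1~4 µM.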

[4] = Microsomal metabolic stability, rat; format: in vitro ADME
Method: (§1) Metabolic stability (MS) evaluation was conducted for the selected compounds by measuring in vitro stability in two species, rat and human, according to the microsomal stability measurement method. As a result, it was identified that MS varied depending on the transformation of parts A, B, and C.

[5] = Microsomal metabolic stability, human; format: in vitro ADME
Method: as §1

[6] = S9 metabolic stability, mouse; format: in vitro ADME; settings: for Metabolic stability (% remaining at each time) Mouse (min) 30: 30 min; for Metabolic stability (% remaining at each time) Mouse (min) 45: 45 min; for Metabolic stability (% remaining at each time) Mouse (min) 60: 60 min
Method: (§2) Among these, secondary MS measurements were conducted for Compound 25 (C0047), Compound 43 (C0216), and C0001 using the S9 method. This test measured the remaining % at 30, 45, and 60 minutes for four species: mouse, rat, dog, and human.

[7] = S9 metabolic stability, rat; format: in vitro ADME; settings: for Metabolic stability (% remaining at each time) Rat (min) 30: 30 min; for Metabolic stability (% remaining at each time) Rat (min) 45: 45 min; for Metabolic stability (% remaining at each time) Rat (min) 60: 60 min
Method: as §2

[8] = S9 metabolic stability, dog; format: in vitro ADME; settings: for Metabolic stability (% remaining at each time) Dog (min) 30: 30 min; for Metabolic stability (% remaining at each time) Dog (min) 45: 45 min; for Metabolic stability (% remaining at each time) Dog (min) 60: 60 min
Method: as §2

[9] = S9 metabolic stability, human; format: in vitro ADME; settings: for Metabolic stability (% remaining at each time) Human (min) 30: 30 min; for Metabolic stability (% remaining at each time) Human (min) 45: 45 min; for Metabolic stability (% remaining at each time) Human (min) 60: 60 min
Method: as §2

[10] = Rat pharmacokinetics (po and iv) and bioavailability; format: in vivo; settings: for Cmax / Tmax / half-life / AUC: in vivo
Method: For this purpose, formulations suitable for peroral administration (po) and intravenous injection (iv) for each compound were first selected to ensure stable PK progression.
The formulation was selected under the condition of maintaining a clear solution for more than 1 hour at 10 and 30 mpk doses based on po, and the iv formulation was modified when iv use was not possible based on po (Table 8).
To confirm the oral administration potential of the selected compounds, 10 mpk rat po PK was conducted. The PK profile and key indicators after administering 10 mpk to five compounds, C0001, 25, 41, 42, and 43, are shown in Figure 3 and Table 9.
Based on the previous 10 mpk po rat PK results, 30 mpk po rat PK was conducted for four compounds, C0001, 25, 41, and 43, to confirm changes in the blood PK profile of the substances with increasing doses.
For these compounds, 2 mpk iv rat PK was conducted to calculate bioavailability (BA) (Table 11).

[11] = Organ distribution; format: in vivo; parameters: Organ distribution Plasma (ng/ml): concentration or dose not given beside the values
[12] = po, 10 mg/kg, 10 mpk (Table 11)
[13] = po, 30 mg/kg, 30 mpk (Table 11)

- EC50 [1]: 5090 nM
- inhibition at 10 µM [2]: 67.1%
- EC50 [3]: 640 nM
- Metabolic stability (% remaining at 30 min) Rat [4]: 80%
- Metabolic stability (% remaining at 30 min) Human [5]: 85%
- Metabolic stability (% remaining at each time) Mouse (min) 30 [6]: 79.8%
- Metabolic stability (% remaining at each time) Mouse (min) 45 [6]: 77.7%
- Metabolic stability (% remaining at each time) Mouse (min) 60 [6]: 73.2%
- Metabolic stability (% remaining at each time) Rat (min) 30 [7]: 99.2%
- Metabolic stability (% remaining at each time) Rat (min) 45 [7]: 81.6%
- Metabolic stability (% remaining at each time) Rat (min) 60 [7]: 88.0%
- Metabolic stability (% remaining at each time) Dog (min) 30 [8]: 110.9%
- Metabolic stability (% remaining at each time) Dog (min) 45 [8]: 117.3%
- Metabolic stability (% remaining at each time) Dog (min) 60 [8]: 100.6%
- Metabolic stability (% remaining at each time) Human (min) 30 [9]: 87.3%
- Metabolic stability (% remaining at each time) Human (min) 45 [9]: 80.7%
- Metabolic stability (% remaining at each time) Human (min) 60 [9]: 92.4%
- Cmax ([10]; 10 mg/kg, po, 10 mpk): 3320 ng/mL
- Tmax ([10]; 10 mg/kg, po, 10 mpk): 1.33 h
- half-life ([10]; 10 mg/kg, po, 10 mpk): 0.95 h
- Cmax ([10]; 30 mg/kg, po, 30 mpk): 12800 ng/mL
- Tmax ([10]; 30 mg/kg, po, 30 mpk): 1.67 h
- half-life ([10]; 30 mg/kg, po, 30 mpk): 1 h
- AUC ([10]; iv, 2 mg/kg, 2 mpk): 2690 ng·h/mL
- AUC ([10]; po, 10 mg/kg, 10 mpk): > 5000 ng·h/mL
- AUC [10, 12]: 9710 ng·h/mL
- AUC ([10]; po, 30 mg/kg, 30 mpk): 55300 ng·h/mL
- AUC [10, 13]: 55300 ng·h/mL
- BA (%) ([10]; po, 10 mpk against iv 2 mpk): 72.2%
- AUC (ng*h/ml) ([10]; po, 10 mpk, listed as 43 (C0216), 10 mg/kg): 9,711 ng*h/ml
- BA (%) ([10]; po, 30 mpk against iv 2 mpk): 137.0%
- AUC value increase at 30 mpk ([10]; po, 30 mpk compared with 10 mpk): 5.7 times
- Organ distribution (ratio per plasma) Brain ([11]; 0.5 h): 0.09
- Organ distribution (ratio per plasma) Brain ([11]; 6.0 h): 0.92
- Organ distribution (ratio per plasma) Heart ([11]; 0.5 h): 0.42
- Organ distribution (ratio per plasma) Heart ([11]; 6.0 h): 0.35
- Organ distribution (ratio per plasma) Kidney ([11]; 0.5 h): 0.61
- Organ distribution (ratio per plasma) Kidney ([11]; 6.0 h): 1.89
- Organ distribution (ratio per plasma) Liver ([11]; 0.5 h): 1.70
- Organ distribution (ratio per plasma) Liver ([11]; 6.0 h): 3.56
- Organ distribution (ratio per plasma) Lung ([11]; 0.5 h): 4.30
- Organ distribution (ratio per plasma) Lung ([11]; 6.0 h): 0.55
- Organ distribution Plasma (ng/ml) ([11]; 0.5 h): 19,420 ng/ml
- Organ distribution Plasma (ng/ml) ([11]; 6.0 h): 5,366 ng/ml
Compound: COc1ccc(CCN(Cc2ccc(N3CC[C@H](C(=O)O)C3)cc2)c2nc3c(F)c(F)cc(F)c3s2)cc1 [Compound 43, (S)-1-(4-(((4-methoxyphenethyl)(4,5,7-trifluorobenzo[d]thiazol-2-yl)amino)methyl)phenyl)pyrrolidine-3-carboxylic acid]
- inhibition at 3 µM [1]: 31.1%
- inhibition at 1 µM [3]: 98.4%

- EC50 [1]: 7930 nM
- inhibition at 10 µM [2]: 64.5%
- EC50 [3]: 750 nM
- Metabolic stability (% remaining at 30 min) Rat [4]: 50%
- Metabolic stability (% remaining at 30 min) Human [5]: 56%
- Metabolic stability (% remaining at each time) Mouse (min) 30 [6]: 67.1%
- Metabolic stability (% remaining at each time) Mouse (min) 45 [6]: 62.3%
- Metabolic stability (% remaining at each time) Mouse (min) 60 [6]: 49.6%
- Metabolic stability (% remaining at each time) Rat (min) 30 [7]: 79.6%
- Metabolic stability (% remaining at each time) Rat (min) 45 [7]: 76.6%
- Metabolic stability (% remaining at each time) Rat (min) 60 [7]: 83.1%
- Metabolic stability (% remaining at each time) Dog (min) 30 [8]: 80.7%
- Metabolic stability (% remaining at each time) Dog (min) 45 [8]: 85.6%
- Metabolic stability (% remaining at each time) Dog (min) 60 [8]: 75.9%
- Metabolic stability (% remaining at each time) Human (min) 30 [9]: 59.1%
- Metabolic stability (% remaining at each time) Human (min) 45 [9]: 50.2%
- Metabolic stability (% remaining at each time) Human (min) 60 [9]: 46.2%
- Cmax ([10]; 10 mg/kg, po, 10 mpk): 2020 ng/mL
- Tmax ([10]; 10 mg/kg, po, 10 mpk): 0.5 h
- half-life ([10]; 10 mg/kg, po, 10 mpk): 1.83 h
- Cmax ([10]; 30 mg/kg, po, 30 mpk): 4720 ng/mL
- Tmax ([10]; 30 mg/kg, po, 30 mpk): 2 h
- half-life ([10]; 30 mg/kg, po, 30 mpk): 2.67 h
- AUC ([10]; iv, 2 mg/kg, 2 mpk): 3440 ng·h/mL
- AUC ([10]; po, 10 mg/kg, 10 mpk): > 5000 ng·h/mL
- AUC [10, 12]: 5830 ng·h/mL
- AUC ([10]; po, 30 mg/kg, 30 mpk): 25600 ng·h/mL
- AUC [10, 13]: 25600 ng·h/mL
- BA (%) ([10]; po, 10 mpk against iv 2 mpk): 33.9%
- BA (%) ([10]; po, 30 mpk against iv 2 mpk): 49.6%
- Organ distribution (ratio per plasma) Brain ([11]; 0.5 h): 0.02
- Organ distribution (ratio per plasma) Brain ([11]; 6.0 h): 0.01
- Organ distribution (ratio per plasma) Heart ([11]; 0.5 h): 0.06
- Organ distribution (ratio per plasma) Heart ([11]; 6.0 h): 0.03
- Organ distribution (ratio per plasma) Kidney ([11]; 0.5 h): 0.01 / 0.01
- Organ distribution (ratio per plasma) Kidney ([11]; 6.0 h): 0.01 / 0.01
- Organ distribution (ratio per plasma) Liver ([11]; 0.5 h): 19.1 / 19.1
- Organ distribution (ratio per plasma) Liver ([11]; 6.0 h): 19.1 / 19.1
- Organ distribution (ratio per plasma) Lung ([11]; 0.5 h): 0.08
- Organ distribution (ratio per plasma) Lung ([11]; 6.0 h): 0.06
- Organ distribution Plasma (ng/ml) ([11]; 0.5 h): 3,145 ng/ml
- Organ distribution Plasma (ng/ml) ([11]; 6.0 h): 1,769 ng/ml
Compound: COc1ccc(CCN(Cc2ccc(C#CC(=O)O)cc2)c2nc3cccc(F)c3s2)cc1 [Compound C0001, reference compound]
- inhibition at 3 µM [1]: 41.9%
- inhibition at 1 µM [3]: 68.7%
